The values that follow are results of earlier work, collected in patent US20090019042A1, “Method Of Screening Compound Regulating The Translation Of Specific mRNA” (Takeda Pharmaceutical Company Limited, priority 2004, published 2009).

The target in one series is xpt-pbux mRNA. The conditions noted are these: guanine recognised by xpt-pbux mRNA.
The next series deals with LysC mRNA. To be noted: L-lysine recognised by LysC mRNA.

pKd: −log10 of the molar value.

Regarding `Nc1nc2nc[nH]c2c(=O)[nH]1` [guanine], the negative-log Kd (pKd) on xpt-pbux mRNA was over 8.30.
With `NCCCC[C@H](N)C(=O)O` [L-lysine], at LysC mRNA, the negative logarithm of the Kd (pKd) is 6.00.

The term pKd denotes the Kd on a negative log10 scale, so that one unit is a factor of ten.
